This passage reports Activity, deltaT and Ki results from ChEMBL document CHEMBL1833947, “Synthesis and biological investigation of potential atypical antipsychotics with a tropane core. Part 1” (Eur J Med Chem, 2011).

Test [1] relates to Rattus norvegicus. The test is described as follows: Antipsychotic activity in 8-OH-DPAT-stimulated rat assessed as lower lip retractions at 10 mg/kg, iv administered 45 mins before 8-OH-DPAT challenge measured after 15 to 45 mins (reference value: 2.9 retractions). Type of test: functional.
The species named for test [2] is Mus musculus. The conditions noted are these: Swiss albino, 5 mg/kg.
Description: Hypothermic effect in Swiss albino mouse assessed as change in body temperature at 5 mg/kg, ip measured after 30 mins in presence of 0.1 mg/kg, sc 5-HT1A antagonist WAY 100635
The target in test [3] is 5-hydroxytryptamine receptor 2A (Rattus norvegicus, UniProt P14842). Put plainly: Displacement of [3H]ketanserin from 5HT2A in rat brain cerebral cortex after 20 mins by scintillation counting. In kind it is tissue-based. In general terms: In a radioligand displacement assay an active substance lowers the binding of a labelled ligand.
Sequence of 5-hydroxytryptamine receptor 2A (P14842 whole entry): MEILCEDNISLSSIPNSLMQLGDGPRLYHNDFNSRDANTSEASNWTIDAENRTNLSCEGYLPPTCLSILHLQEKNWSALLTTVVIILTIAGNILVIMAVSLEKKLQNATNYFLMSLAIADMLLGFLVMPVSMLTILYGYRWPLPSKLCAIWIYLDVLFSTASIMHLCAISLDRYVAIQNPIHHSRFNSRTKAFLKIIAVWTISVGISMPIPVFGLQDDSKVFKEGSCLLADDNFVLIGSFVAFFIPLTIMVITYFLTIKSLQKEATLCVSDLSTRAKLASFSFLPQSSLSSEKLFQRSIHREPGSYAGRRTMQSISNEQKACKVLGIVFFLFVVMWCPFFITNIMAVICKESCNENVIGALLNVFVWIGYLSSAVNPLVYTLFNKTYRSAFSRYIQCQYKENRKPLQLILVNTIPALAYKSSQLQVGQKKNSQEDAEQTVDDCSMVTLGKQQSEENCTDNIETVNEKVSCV
Test [4] is filed under the species Mus musculus. The settings on record: Swiss albino, 5 mg/kg. The source holds these as a separate data set.
Description: Hypothermic effect in Swiss albino mouse assessed as change in body temperature at 5 mg/kg, ip measured after 90 mins
The subject of test [5] is Rattus norvegicus. Put plainly: Induction of 5HT1A receptor in rat assesses as lower lip retractions at 5 mg/kg, iv after 15 mins (reference value: 0.1 +/- 0.1 retractions). In kind it is functional.
The subject of test [6] is Rattus norvegicus. The test is described as follows: Antipsychotic activity in 8-OH-DPAT-stimulated rat assessed as lower lip retractions at 20 mg/kg, iv administered 45 mins before 8-OH-DPAT challenge measured after 15 to 45 mins (reference value: 2.9 retractions). In kind it is functional.
The species entered for test [7] is Mus musculus. The settings on record: Swiss albino, 5 mg/kg. The source holds these as a separate data set.
Description: Hypothermic effect in Swiss albino mouse assessed as change in body temperature at 5 mg/kg, ip measured after 60 mins in presence of 0.1 mg/kg, sc 5-HT1A antagonist WAY 100635
Test [8] deals with Mus musculus. The test is described as follows: Antidepressant-like activity in Swiss albino mouse assessed as immobilization time at 5 mg/kg, ip after 30 mins by forced swim test. In kind it is functional, organism-based. Also noted: dose 5 mg/kg.
For test [9], the species on record is Mus musculus. The conditions noted are these: Swiss albino, 2.5 mg/kg.
Description: Hypothermic effect in Swiss albino mouse assessed as change in body temperature at 2.5 mg/kg, ip measured after 90 mins
Test [10] is filed under the species Mus musculus. The settings on record: Swiss albino, 5 mg/kg. This is another data set of the same source.
Description: Hypothermic effect in Swiss albino mouse assessed as change in body temperature at 5 mg/kg, ip measured after 60 mins
Test [11] is filed under the species Mus musculus. The settings on record: Swiss albino, 2.5 mg/kg. This is another data set of the same source.
Description: Hypothermic effect in Swiss albino mouse assessed as change in body temperature at 2.5 mg/kg, ip measured after 60 mins
For test [12], the target named is D(2) dopamine receptor (Rattus norvegicus, UniProt P61169). Put plainly: Displacement of [3H]spiperone from dopamine D2 receptor in rat striatum tissue after 20 mins by scintillation counting. Type of test: tissue-based.
Sequence of D(2) dopamine receptor (P61169 whole entry): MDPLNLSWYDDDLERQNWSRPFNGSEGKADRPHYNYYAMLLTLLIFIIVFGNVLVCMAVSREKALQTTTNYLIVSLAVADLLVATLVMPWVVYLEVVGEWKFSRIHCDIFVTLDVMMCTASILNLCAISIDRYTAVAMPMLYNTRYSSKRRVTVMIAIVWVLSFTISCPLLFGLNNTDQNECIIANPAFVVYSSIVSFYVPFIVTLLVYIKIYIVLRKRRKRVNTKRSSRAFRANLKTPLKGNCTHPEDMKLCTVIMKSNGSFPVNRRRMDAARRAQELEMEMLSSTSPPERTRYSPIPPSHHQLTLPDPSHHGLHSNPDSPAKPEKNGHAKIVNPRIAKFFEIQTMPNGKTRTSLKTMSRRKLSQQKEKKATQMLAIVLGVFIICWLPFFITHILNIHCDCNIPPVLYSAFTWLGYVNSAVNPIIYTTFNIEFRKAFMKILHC
The target in test [13] is T1, 5-hydroxytryptamine receptor 1A (Rattus norvegicus, UniProt P19327).
T1 sequence (P19327 whole entry): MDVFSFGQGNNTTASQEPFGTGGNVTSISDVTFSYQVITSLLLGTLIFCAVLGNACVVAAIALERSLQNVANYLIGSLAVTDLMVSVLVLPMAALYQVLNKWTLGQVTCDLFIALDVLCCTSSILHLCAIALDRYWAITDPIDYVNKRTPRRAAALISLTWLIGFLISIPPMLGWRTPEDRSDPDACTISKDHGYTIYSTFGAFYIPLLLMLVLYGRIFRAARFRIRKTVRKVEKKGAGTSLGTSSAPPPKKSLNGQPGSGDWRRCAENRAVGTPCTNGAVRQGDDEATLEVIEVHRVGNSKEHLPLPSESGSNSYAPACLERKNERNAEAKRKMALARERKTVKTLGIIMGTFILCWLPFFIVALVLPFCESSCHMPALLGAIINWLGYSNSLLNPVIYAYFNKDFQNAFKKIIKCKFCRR
The test is described as follows: Displacement of [3H]8OH-DPAT from 5HT1A in rat brain cerebral cortex after 15 mins by scintillation counting. Type of test: tissue-based.

For test [14], the species on record is Mus musculus. The conditions noted are these: Swiss albino, 2.5 mg/kg. This is another data set of the same source.
Description: Hypothermic effect in Swiss albino mouse assessed as change in body temperature at 2.5 mg/kg, ip measured after 30 mins
The species named for test [15] is Mus musculus. The conditions noted are these: Swiss albino, 5 mg/kg. This is another data set of the same source.
Description: Hypothermic effect in Swiss albino mouse assessed as change in body temperature at 5 mg/kg, ip measured after 30 mins
The species entered for test [16] is Mus musculus. The settings on record: Swiss albino, 2.5 mg/kg. This is another data set of the same source.
Description: Hypothermic effect in Swiss albino mouse assessed as change in body temperature at 2.5 mg/kg, ip measured after 120 mins
The subject of test [17] is Mus musculus. Put plainly: Antipsychotic activity in mouse assessed as reversal of DOI-induced head twitches at 10 mg/kg, ip administered 30 mins before DOI challenge. The settings on record: route intraperitoneal. Type of test: functional.
Test [18] relates to Rattus norvegicus. The test is described as follows: Antipsychotic activity in 8-OH-DPAT-stimulated rat assessed as lower lip retractions at 5 mg/kg, iv administered 45 mins before 8-OH-DPAT challenge measured after 15 to 45 mins (reference value: 2.9 retractions). In kind it is functional.
The species entered for test [19] is Mus musculus. The conditions noted are these: Swiss albino, 5 mg/kg. This is another data set of the same source.
Description: Hypothermic effect in Swiss albino mouse assessed as change in body temperature at 5 mg/kg, ip measured after 120 mins
Test [20] concerns Rattus norvegicus. The test is described as follows: Induction of 5HT1A receptor in rat assesses as lower lip retractions at 10 mg/kg, iv after 15 mins (reference value: 0.1 +/- 0.1 retractions). In kind it is functional.
The subject of test [21] is Rattus norvegicus. Put plainly: Induction of 5HT1A receptor in rat assesses as lower lip retractions at 20 mg/kg, iv after 15 mins (reference value: 0.1 +/- 0.1 retractions). In kind it is functional.
Test [22] concerns Mus musculus. Put plainly: Antidepressant-like activity in Swiss albino mouse assessed as immobilization time at 2.5 mg/kg, ip after 30 mins by forced swim test. Also noted: dose 2.5 mg/kg. Type of test: functional, organism-based.
The subject of test [23] is Mus musculus. The test is described as follows: Anxiolytic-like activity in mouse assessed as number of punished crossing at 5 mg/kg, ip after 6 mins by four-plate test (reference value: 1514 +/- 73 crossings). In kind it is functional. The settings on record: route intraperitoneal.
Test [24] concerns Mus musculus. Put plainly: Antipsychotic activity in mouse assessed as reversal of DOI-induced head twitches at 5 mg/kg, ip administered 30 mins before DOI challenge. In kind it is functional. The conditions noted are these: route intraperitoneal.
In test [25] the test system is Mus musculus. Put plainly: Anxiolytic-like activity in mouse assessed as number of punished crossing at 5 mg/kg, ip after 30 mins by four-plate test (reference value: 1514 +/- 73 crossings). In kind it is functional. The conditions noted are these: route intraperitoneal.
Test [26] has as its system Mus musculus. The test is described as follows: Antipsychotic activity in mouse assessed as reversal of DOI-induced head twitches at 20 mg/kg, ip administered 30 mins before DOI challenge. Type of test: functional. The settings on record: route intraperitoneal.
Test [27] relates to Rattus norvegicus. Put plainly: Induction of 5HT1A receptor in rat assesses as lower lip retractions at 0.1 mg/kg, iv after 15 mins (reference value: 0.1 +/- 0.1 retractions). In kind it is functional.
For test [28], the system named is Rattus norvegicus. Put plainly: Antipsychotic activity in 8-OH-DPAT-stimulated rat assessed as lower lip retractions at 0.1 mg/kg, iv administered 45 mins before 8-OH-DPAT challenge measured after 15 to 45 mins (reference value: 2.9 retractions). Type of test: functional.
For test [29], the system named is Mus musculus. The test is described as follows: Antipsychotic activity in mouse assessed as reversal of apomorphine-induced mesh climbing response at 50 mg/kg, ip administered 10 mins prior to apomorphine challenge measured after 30 mins. Type of test: functional, organism-based. Details: dose 50 mg/kg.
For test [30], the species on record is Mus musculus. The conditions noted are these: Swiss albino, 20 mg/kg.
Description: Hypothermic effect in Swiss albino mouse assessed as change in body temperature at 20 mg/kg, ip measured after 60 mins
Test [31] deals with Mus musculus. Put plainly: Antipsychotic activity in mouse assessed as reversal of apomorphine-induced mesh climbing response at 50 mg/kg, ip administered 20 mins prior to apomorphine challenge measured after 40 mins.
The species named for test [32] is Mus musculus. The conditions noted are these: Swiss albino, 20 mg/kg. The source holds these as a separate data set.
Description: Hypothermic effect in Swiss albino mouse assessed as change in body temperature at 20 mg/kg, ip measured after 120 mins
The species named for test [33] is Mus musculus. The settings on record: Swiss albino, 10 mg/kg.
Description: Hypothermic effect in Swiss albino mouse assessed as change in body temperature at 10 mg/kg, ip measured after 90 mins
Test [34] is filed under the species Mus musculus. The settings on record: Swiss albino, 10 mg/kg. This is another data set of the same source.
Description: Hypothermic effect in Swiss albino mouse assessed as change in body temperature at 10 mg/kg, ip measured after 30 mins
The species named for test [35] is Mus musculus. The conditions noted are these: Swiss albino, 20 mg/kg. The source holds these as a separate data set.
Description: Hypothermic effect in Swiss albino mouse assessed as change in body temperature at 20 mg/kg, ip measured after 30 mins in presence of 5 mg/kg, sc 8-OH-DPAT
The species named for test [36] is Mus musculus. The conditions noted are these: Swiss albino, 10 mg/kg. This is another data set of the same source.
Description: Hypothermic effect in Swiss albino mouse assessed as change in body temperature at 10 mg/kg, ip measured after 120 mins
For test [37], the species on record is Mus musculus. The settings on record: Swiss albino, 20 mg/kg. This is another data set of the same source.
Description: Hypothermic effect in Swiss albino mouse assessed as change in body temperature at 20 mg/kg, ip measured after 15 mins in presence of 5 mg/kg, sc 8-OH-DPAT
Test [38] is filed under the species Mus musculus. The settings on record: Swiss albino, 20 mg/kg. The source holds these as a separate data set.
Description: Hypothermic effect in Swiss albino mouse assessed as change in body temperature at 20 mg/kg, ip measured after 60 mins in presence of 5 mg/kg, sc 8-OH-DPAT
The species named for test [39] is Mus musculus. The settings on record: Swiss albino, 20 mg/kg. This is another data set of the same source.
Description: Hypothermic effect in Swiss albino mouse assessed as change in body temperature at 20 mg/kg, ip measured after 45 mins in presence of 5 mg/kg, sc 8-OH-DPAT
For test [40], the species on record is Mus musculus. The settings on record: Swiss albino, 20 mg/kg. This is another data set of the same source.
Description: Hypothermic effect in Swiss albino mouse assessed as change in body temperature at 20 mg/kg, ip measured after 30 mins
The species named for test [41] is Mus musculus. The settings on record: Swiss albino, 20 mg/kg. The source holds these as a separate data set.
Description: Hypothermic effect in Swiss albino mouse assessed as change in body temperature at 20 mg/kg, ip measured after 90 mins
The species named for test [42] is Mus musculus. The settings on record: Swiss albino, 10 mg/kg. This is another data set of the same source.
Description: Hypothermic effect in Swiss albino mouse assessed as change in body temperature at 10 mg/kg, ip measured after 60 mins

Activity calls are given as the source filed them. The rule behind the calls is not given here.

A word on the Ki: it is a measure of affinity in units of concentration, obtained from inhibition or displacement. The low end stands for higher affinity, the high end for lower affinity. Take `O=C(N[C@@H]1CC2CC[C@H](C1)N2Cc1ccccc1)c1ccc2ccccc2c1` (single isomer, unassigned): the Activity is given as 2.6 in test [1]; 0.1 in test [5]; 2.6 in test [6]; 95% in test [17]; 2.7 in test [18]; 0.2 in test [20]. The Activity in test [21] worked out at 0.1; in test [23], 15; in test [24] it was 81%; in test [25], 321; in test [26] it was 100%. For the same compound, the deltaT in [2] was -1.3 °C; in [4], -0.6 °C; in test [7], -0.9 °C; in [9] it was -0.1 °C; in test [10], -0.9 °C; in [11], 0.1 °C. Moreover, the deltaT in [14] was -0.2 °C; in test [15], -1.5 °C; in [16], 0 °C; in [19], -0.5 °C. The results for the inhibitory constant (Ki) in test [3], in test [12] and in test [13] were 2.5 nM, 82.4 nM and 304 nM, respectively. Further, the outcome in test [8] and in [22] was inactive.

`COc1ccccc1N1CCN(CCN(C(=O)C2CCCCC2)c2ccccn2)CC1.Cl.Cl.Cl`: the results for the Activity in test [27] and in [28] were 0 and 0.3, respectively.

Take `COc1cc(N)c(Cl)cc1C(=O)N[C@@H]1CC2CC[C@H](C1)N2CC1CCCO1` (single isomer, unassigned): the Activity in test [1] is listed as 2.4; in [6], 2.4; in test [20], 0.3; in test [21], 0.5; in [24], 63%; in test [26], 92%. Moreover, the Ki in test [3] stood at 6.2 nM; in test [12] it was 103 nM; in test [13], 5700 nM. In addition, the result in [29] and in test [31] was Active. Besides, the deltaT in [4] is 0 °C; in [30], -0.3 °C; in [32], -0.1 °C; in test [33], -0.1 °C; in [10], -0.1 °C; in [34], -0.2 °C. Besides, the deltaT in test [35] was -2.9 °C; in test [15], -0.1 °C; in test [36], 0 °C; in [37] it was -2.9 °C; in test [38] it was -0.6 °C; in test [39], -1.6 °C. Also, the deltaT in test [40] was -0.8 °C; in test [41] it was -0.1 °C; in [19], 0 °C; in [42], 0 °C.
